Results on 1 substance are retold here after PMC8011784, “Chronic peptide-based GIP receptor inhibition exhibits modest glucose metabolic changes in mice when administered either alone or combined with GLP-1 agonism” (PLoS ONE, 2021).

Assay [1] deals with DIO mice. Description: Chronic GIPA-1 study: body weight and food intake in DIO mice. The class given is in vivo, mouse. The following applies: 28 days, HFD; liraglutide 0.2 mg/kg/day SC, GIPA-1 ~4.5 mg/kg/day osmotic minipump; n = 10; vs vehicle (combination: vs liraglutide). How it is done: 23-week-old male C57BL/6JRj mice (n = 40), fed a HFD (SSNIFF® diet #12492[60% fat, 20% protein, 20% carbohydrate]) for 14 weeks, were distributed into 4 test groups and received daily either vehicle, liraglutide (0.2 mg/kg/day), GIPA-1 (~4.5 mg/kg/day) or liraglutide + GIPA-1 for 4 weeks while still maintained on HFD. GIPA-1 was delivered using minipumps in order to achieve sufficient GIPR antagonism based on the properties of this peptide (Fig 2A). Liraglutide was dissolved in phosphate-buffered saline (PBS) plus 0.1% bovine serum albumin (BSA) (vehicle 1) and GIPA-1 in DMSO/propylene glycol (50/50 volume per volume) (vehicle 2). 100 μL minipumps (Alzet) were filled with GIPA-1 (30 mg/mL) or vehicle 2 and kept in 0.9% saline at 37°C overnight. […] Fasted (4 hrs) blood glucose and insulin levels were measured on study day -3, 14 and 27. […] Blood glucose was measured before their daily dosing and at 0, 15, 30 60, 120, 180 min after glucose administration. Plasma insulin was measured at 0 and 15 min. Whole body weight and food intake were measured throughout the study period. […]
Fig 2 Effects of chronic GIPR antagonism on body weight, food intake, and fasting blood glucose and insulin. […] Statistical analysis was calculated using two-way ANOVA with Tukey’s post-hoc test and one-way ANOVA for AUC with Dunnett’s post-hoc test. *: p< 0.05, **: p < 0.01, ***: p < 0.001, ****: p<0.0001 compared to vehicle.

For assay [2], the system named is DIO mice. Description: Chronic GIPA-2 study: insulin tolerance test (ITT) in DIO mice. The class given is in vivo, mouse. Conditions: day 24; insulin 0.5 U/kg ip one hour after daily dose; liraglutide 0.2 mg/kg SC, GIPA-2 10 mg/kg SC; n = 10. How it is done: For studying the chronic effects of GIPA-2, male C57BL/6JRj mice (n = 40) were fed a HFD (SSNIFF® diet #12492) for 43 weeks. DIO mice were randomized (n = 10 per group) based on baseline blood glucose and body weight. Liraglutide was dissolved in PBS plus 0.1% BSA (Vehicle1) and GIPA-2 in PBS (vehicle 2). Mice received one of the following four treatments daily for 28 days while still maintained on HFD: (1) vehicle 1 (SC) and vehicle 2 (SC); (2) 0.2 mg/kg liraglutide (SC) and vehicle 2; (3) vehicle 1 (SC) and 10 mg/kg GIPA-2 (SC); and (4) 0.2 mg/kg liraglutide (SC) plus 10 mg/kg GIPA-2 (SC). […] Fasted (4 hrs) blood glucose and insulin were measured on study day -4, 10 and 26. […] Blood glucose was measured before their daily dosing and at 0, 15, 30 60, 120, 180 and 240 min after glucose administration. […] Blood glucose was measured before their daily dosing and at 0, 15, 30 60, 120, 180 min after glucose administration. […]
Fig 3 Effects of GIPA-1 and GIPA-2 on oral glucose tolerance and insulin responses in DIO mice. […] Statistical analysis was calculated using two-way ANOVA with Tukey’s post-hoc test and one-way ANOVA with Dunnett’s post-hoc test. *: p< 0.05, **: p < 0.01, ***: p < 0.001, ****: p<0.0001 compared to vehicle.

Regarding liraglutide, in assay [1], the body weight entry is “reduced both body weight and food intake”; the cumulative food intake result was “reduced both body weight and food intake”. In assay [2], the “insulin sensitivity (ITT)” value was “improved insulin sensitivity produced by liraglutide”.
